Results from the Kinase Knowledgebase extract (Sharma et al. 2016).

The compounds below were run against EGFR (human) (UniProt P00533).
Sequence of EGFR (human) (P00533 whole entry, looked up): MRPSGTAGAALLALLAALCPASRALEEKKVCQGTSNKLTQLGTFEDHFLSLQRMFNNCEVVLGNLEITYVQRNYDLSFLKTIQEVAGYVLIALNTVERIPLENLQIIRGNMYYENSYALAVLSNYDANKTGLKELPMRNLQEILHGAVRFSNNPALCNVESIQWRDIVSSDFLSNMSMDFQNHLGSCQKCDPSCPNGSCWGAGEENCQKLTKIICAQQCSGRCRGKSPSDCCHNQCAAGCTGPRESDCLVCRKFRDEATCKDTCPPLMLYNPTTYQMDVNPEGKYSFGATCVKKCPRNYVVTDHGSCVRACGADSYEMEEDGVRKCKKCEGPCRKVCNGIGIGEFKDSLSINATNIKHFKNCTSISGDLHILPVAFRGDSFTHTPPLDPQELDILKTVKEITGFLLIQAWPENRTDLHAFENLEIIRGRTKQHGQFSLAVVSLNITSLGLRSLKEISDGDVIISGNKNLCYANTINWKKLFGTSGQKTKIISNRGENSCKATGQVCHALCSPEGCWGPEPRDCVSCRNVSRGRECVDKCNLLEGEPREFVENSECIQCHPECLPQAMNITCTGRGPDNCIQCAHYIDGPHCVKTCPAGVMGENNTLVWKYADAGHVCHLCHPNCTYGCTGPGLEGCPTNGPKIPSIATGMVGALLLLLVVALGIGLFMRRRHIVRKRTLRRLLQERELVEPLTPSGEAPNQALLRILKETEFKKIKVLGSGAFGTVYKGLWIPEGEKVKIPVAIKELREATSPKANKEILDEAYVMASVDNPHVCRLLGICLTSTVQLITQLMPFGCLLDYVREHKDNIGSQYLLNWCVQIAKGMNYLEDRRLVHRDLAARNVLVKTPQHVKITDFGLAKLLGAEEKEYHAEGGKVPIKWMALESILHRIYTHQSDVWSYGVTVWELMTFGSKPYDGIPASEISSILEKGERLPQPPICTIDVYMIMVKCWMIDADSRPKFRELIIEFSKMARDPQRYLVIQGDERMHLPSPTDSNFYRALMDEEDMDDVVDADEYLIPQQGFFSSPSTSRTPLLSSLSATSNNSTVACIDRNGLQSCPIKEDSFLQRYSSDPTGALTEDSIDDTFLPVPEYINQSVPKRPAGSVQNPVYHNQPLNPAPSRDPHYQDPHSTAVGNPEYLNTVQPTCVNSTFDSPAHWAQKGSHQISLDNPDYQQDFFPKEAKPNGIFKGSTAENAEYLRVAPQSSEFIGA
With `Cc1ccc(C(=O)Nc2ccc(F)cc2F)c(O)c1` the IC50 was over 50 µM.
With `O=C(Nc1ccc(F)cc1)c1cc(Br)cc(Br)c1O` the IC50 was over 50 µM.
`O=C(Nc1ccc(F)cc1F)c1ccccc1O` gave an IC50 of over 50 µM.
Work on `O=C(Nc1ccc(Br)cc1)c1ccccc1O` yielded an IC50 of over 50 µM.
Work on `Cc1ccc(C(=O)Nc2ccc(Cl)cc2)c(O)c1` yielded an IC50 of over 50 µM.
`Cc1ccc(C(=O)Nc2ccc(C(C)C)cc2)c(O)c1` gave an IC50 of over 50 µM.
`O=C(Nc1ccc(F)cc1)c1ccccc1O` was tested, and the IC50 was over 50 µM.
`O=C(Nc1ccccc1)c1ccccc1O` was tested, and the IC50 was over 50 µM.
For `Cc1ccc(C(=O)Nc2ccccc2)c(O)c1`, the IC50 was over 50 µM.
For `O=C(Nc1ccc(F)cc1)c1cc(I)ccc1O`, the IC50 was over 50 µM.
